Test results as given in US7943608B2, “Diazepinoes” (Merck Patent GmbH, priority 2005, dated 2011).

What follows are compounds tested against T1, His6-PDK1(Δ1-50) (Homo sapiens, UniProt O15530) (assay: Inhibition of PDK1 (IC50), 384-well flashplate kinase assay). Details: 4 μM ATP, 400 nM PDKtide, first part of Table 1 (compounds 1-31).
T1 construct: His6 (N)
T1 sequence (O15530 51-556): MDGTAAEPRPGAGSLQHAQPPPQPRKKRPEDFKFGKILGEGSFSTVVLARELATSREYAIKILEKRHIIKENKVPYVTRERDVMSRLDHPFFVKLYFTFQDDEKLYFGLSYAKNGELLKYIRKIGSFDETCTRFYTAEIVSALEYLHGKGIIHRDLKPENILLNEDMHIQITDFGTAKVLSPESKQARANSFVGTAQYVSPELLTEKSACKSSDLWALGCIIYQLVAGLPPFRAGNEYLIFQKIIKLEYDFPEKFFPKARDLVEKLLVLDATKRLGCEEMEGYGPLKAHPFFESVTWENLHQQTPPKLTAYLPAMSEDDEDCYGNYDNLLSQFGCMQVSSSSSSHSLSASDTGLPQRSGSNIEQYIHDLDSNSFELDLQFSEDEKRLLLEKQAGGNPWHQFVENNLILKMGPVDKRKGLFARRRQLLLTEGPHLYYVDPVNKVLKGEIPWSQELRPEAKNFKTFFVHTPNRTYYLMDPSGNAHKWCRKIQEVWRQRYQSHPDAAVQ
Type: biochemical
Procedure: Inhibition of PDK1 (IC50)
The kinase assay can be carried out as a 384-well flashplate assay. 3.4 nM His6-PDK1(Δ1-50), 400 nM PDKtide (biotin-bA-bA-[…]) and 4 μM ATP (with 0.2 μCi of 33P-ATP/well) are incubated at […] for 60 min in a total volume of 50 μl (50 mM TRIS, 10 mM Mg acetate, 0.1% of mercaptoethanol, 0.02% of Brij35, 0.1% of BSA, pH 7.5) with or without test substance (5-10 concentrations). The reaction is stopped using 25 μl of 200 mM EDTA solution, filtered with suction after 30 min at room temperature, and the wells are washed with 3 times 100 μl of 0.9% NaCl solution. The nonspecific content of the kinase reaction (blank) is determined using 100 nM staurosporine. Radioactivity is measured using a Topcount scintillation counter (PerkinElmer, USA). IC50 values are calculated using the RS1 computer program.

| SMILES | IC50 [nM] |
| --- | --- |
| Cc1ccc2c(c1)NC(=O)c1cnc(N(C(C)C)C3CCN(C)CC3)nc1N2 [Compound 26] | 6200 |
| Cc1noc(C)c1-c1ccc2c(c1)NC(=O)c1cnc(N(C)C3CCN(C)CC3)nc1N2 [Compound 29] | 3200 |

Same assay, conditions: 4 μM ATP, 400 nM PDKtide, second part of Table 1 (compounds 32-124)

| SMILES | IC50 [nM] |
| --- | --- |
| Cc1cc2c(cc1C)Nc1nc(N(C)C3CCN(C)CC3)ncc1C(=O)N2 [Compound 32] | 640 |
| Cc1cc(C)c2c(c1)NC(=O)c1cnc(N(C)C3CCN(C)CC3)nc1N2 [Compound 33] | 1300 |
| Cc1cc(C)c2c(c1)NC(=O)c1cnc(NC3CCN(C)CC3)nc1N2 [Compound 34] | 3700 |
| CN1CCC(N(C)c2ncc3c(n2)Nc2cc(Cl)c(Cl)cc2NC3=O)CC1 [Compound 35] | 3700 |
| CN1CCC(Nc2ncc3c(n2)Nc2cc(Cl)c(Cl)cc2NC3=O)CC1 [Compound 36] | 1200 |
| CN1CCC(Nc2ncc3c(n2)Nc2ccc(N(C)C)cc2NC3=O)CC1 [Compound 37] | 190 |
| CN1CCC(N(C)c2ncc3c(n2)Nc2ccc(C#N)cc2NC3=O)CC1 [Compound 38] | 600 |
| CCN1CCC(Nc2ncc3c(n2)Nc2cc(Cl)c(Cl)cc2NC3=O)CC1 [Compound 39] | 4900 |
| CCN1CCC(Nc2ncc3c(n2)Nc2ccc(C(C)(C)C)cc2NC3=O)CC1 [Compound 40] | 1400 |
| CCN1CCC(Nc2ncc3c(n2)Nc2c(ccc(C)c2C)NC3=O)CC1 [Compound 41] | 6300 |
| CCN1CCC(Nc2ncc3c(n2)Nc2c(C)cc(C)cc2NC3=O)CC1 [Compound 42] | 4800 |
| CCOc1ccc2c(c1)NC(=O)c1cnc(NC3CCN(CC)CC3)nc1N2 [Compound 43] | 2000 |
| CCN1CCC(Nc2ncc3c(n2)Nc2ccc(C(C)C)cc2NC3=O)CC1 [Compound 44] | 920 |
| CCN1CCC(Nc2ncc3c(n2)Nc2ccc(C)cc2NC3=O)CC1 [Compound 45] | 1500 |
| Cc1cccc2c1Nc1nc(NC3CCN(C)CC3)ncc1C(=O)N2 [Compound 46] | 2400 |
| CCN1CCC(Nc2ncc3c(n2)Nc2cc(C)c(C)cc2NC3=O)CC1 [Compound 47] | 1500 |
| CCN(c1ncc2c(n1)Nc1ccc(C(C)C)cc1NC2=O)C1CCN(C)CC1 [Compound 48] | 3000 |
| CCOc1ccc2c(c1)NC(=O)c1cnc(NC3CCN(C(C)C)CC3)nc1N2 [Compound 49] | 5100 |
| CC(C)c1ccc2c(c1)NC(=O)c1cnc(NC3CCN(C(C)C)CC3)nc1N2 [Compound 50] | 1200 |
| CC(C)N1CCC(Nc2ncc3c(n2)Nc2ccc(C(C)(C)C)cc2NC3=O)CC1 [Compound 51] | 2700 |
| CC(C)N1CCC(Nc2ncc3c(n2)Nc2ccc(F)cc2NC3=O)CC1 [Compound 52] | 3600 |
| Cc1ccc2c(c1)NC(=O)c1cnc(NC3CCN(C(C)C)CC3)nc1N2 [Compound 53] | 2400 |
| CCN1CCC(Nc2ncc3c(n2)Nc2c(C)cccc2NC3=O)CC1 [Compound 54] | 7100 |

| SMILES | IC50 [nM] |
| --- | --- |
| CCN1CCC(Nc2ncc3c(n2)Nc2ccc(C#N)cc2NC3=O)CC1 [Compound 55] | 2300 |
| CN1CCC(Nc2ncc3c(n2)Nc2ccc(C#N)cc2NC3=O)CC1 [Compound 56] | 1500 |
| Cc1cc2c(cc1C)Nc1nc(NC3CCN(C(C)C)CC3)ncc1C(=O)N2 [Compound 57] | 2000 |
| CC(C)N1CCC(Nc2ncc3c(n2)Nc2ccc(C#N)cc2NC3=O)CC1 [Compound 58] | 7100 |
| CCN(c1ncc2c(n1)Nc1ccc(F)cc1NC2=O)C1CCN(C)CC1 [Compound 59] | 2400 |
| CCN1CCC(Nc2ncc3c(n2)Nc2ccc(C(F)(F)F)cc2NC3=O)CC1 [Compound 60] | 2900 |
| CC(C)N1CCC(Nc2ncc3c(n2)Nc2ccc(C(F)(F)F)cc2NC3=O)CC1 [Compound 61] | 6500 |
| CN1CCC(Nc2ncc3c(n2)Nc2ccc(C(F)(F)F)cc2NC3=O)CC1 [Compound 62] | 1800 |
| CN1CCC(N(C)c2ncc3c(n2)Nc2ccc(-c4cccs4)cc2NC3=O)CC1 [Compound 63] | 1000 |
| CCOc1ccc2c(c1)NC(=O)c1cnc(N(C)C3CCN(C)CC3)nc1N2 [Compound 64] | 430 |
| CCOc1ccc2c(c1)NC(=O)c1cnc(NC3CCN(C)CC3)nc1N2 [Compound 65] | 520 |
| Cc1ccc2c(c1C)Nc1nc(NC3CCN(C)CC3)ncc1C(=O)N2 [Compound 66] | 3400 |
| CN1CCC(N(C)c2ncc3c(n2)Nc2ccc(C(F)(F)F)cc2NC3=O)CC1 [Compound 67] | 1300 |
| CN1CCC(N(C)c2ncc3c(n2)Nc2cc(N)ccc2NC3=O)CC1 [Compound 68] | 510 |
| CN1CCC(N(C)c2ncc3c(n2)Nc2cc(NC(=O)NC4CCCC4)ccc2NC3=O)CC1 [Compound 69] | 650 |
| CC(C)Cn1cc(-c2ccc3c(c2)NC(=O)c2cnc(N(C)C4CCN(C)CC4)nc2N3)cn1 [Compound 70] | 110 |
| CN(c1ncc2c(n1)Nc1ccc(C(C)(C)C)cc1NC2=O)C1CCNCC1 [Compound 71] | 430 |
| Cc1cc2c(cc1C)Nc1nc(N(C)C3CCN(C(=O)CCN(C)C)CC3)ncc1C(=O)N2 [Compound 72] | 8100 |
| Cc1cc2c(cc1C)Nc1nc(N(C)C3CCN(CCN(C)C)CC3)ncc1C(=O)N2 [Compound 73] | 3900 |
| Cc1cc2c(cc1C)Nc1nc(N(C)C3CCNCC3)ncc1C(=O)N2 [Compound 74] | 320 |
| CC(C)NC(=O)Nc1ccc2c(c1)Nc1nc(N(C)C3CCN(C)CC3)ncc1C(=O)N2 [Compound 75] | 960 |
| CCNC(=O)Nc1ccc2c(c1)Nc1nc(N(C)C3CCN(C)CC3)ncc1C(=O)N2 [Compound 76] | 1300 |
| CCC(C)NC(=O)Nc1ccc2c(c1)Nc1nc(N(C)C3CCN(C)CC3)ncc1C(=O)N2 (stereo not drawn) [Compound 77] | 940 |

| SMILES | IC50 [nM] |
| --- | --- |
| CN1CCC(N(C)c2ncc3c(n2)Nc2ccc(NC(=O)NC4CCCC4)cc2NC3=O)CC1 [Compound 78] | 150 |
| CC(C)NC(=O)Nc1cccc2c1Nc1nc(N(C)C3CCN(C)CC3)ncc1C(=O)N2 [Compound 79] | 6000 |
| CN1CCC(N(C)c2ncc3c(n2)Nc2ccc(N)cc2NC3=O)CC1 [Compound 80] | 190 |
| CCCNC(=O)Nc1ccc2c(c1)Nc1nc(N(C)C3CCN(C)CC3)ncc1C(=O)N2 [Compound 81] | 420 |
| CN1CCC(N(C)c2ncc3c(n2)Nc2cc(NC(=O)NC4CCCCC4)ccc2NC3=O)CC1 [Compound 82] | 750 |
| CN1CCC(N(C)c2ncc3c(n2)Nc2ccc(NC(=O)NC(C)(C)C)cc2NC3=O)CC1 [Compound 83] | 200 |
| CN1CCC(N(C)c2ncc3c(n2)Nc2c(NC(=O)NC(C)(C)C)cccc2NC3=O)CC1 [Compound 84] | 5500 |
| CCNC(=O)Nc1ccc2c(c1)NC(=O)c1cnc(N(C)C3CCN(C)CC3)nc1N2 [Compound 85] | 280 |
| CCCNC(=O)Nc1ccc2c(c1)NC(=O)c1cnc(N(C)C3CCN(C)CC3)nc1N2 [Compound 86] | 280 |
| CCC(C)NC(=O)Nc1ccc2c(c1)NC(=O)c1cnc(N(C)C3CCN(C)CC3)nc1N2 (stereo not drawn) [Compound 87] | 230 |
| CN1CCC(N(C)c2ncc3c(n2)Nc2ccc(NC(=O)NC4CCCCC4)cc2NC3=O)CC1 [Compound 88] | 150 |
| CN1CCC(N(C)c2ncc3c(n2)Nc2ccc(NC(=O)Nc4cccs4)cc2NC3=O)CC1 [Compound 89] | 200 |
| CN1CCC(N(C)c2ncc3c(n2)Nc2cc(NC(=O)Nc4cccs4)ccc2NC3=O)CC1 [Compound 90] | 290 |
| CCC(C)NC(=O)Nc1cccc2c1Nc1nc(N(C)C3CCN(C)CC3)ncc1C(=O)N2 (stereo not drawn) [Compound 92] | 7800 |
| CN1CCC(N(C)c2ncc3c(n2)Nc2c(NC(=O)NC4CCCCC4)cccc2NC3=O)CC1 [Compound 93] | 3500 |
| CN1CCC(N(C)c2ncc3c(n2)Nc2cc(NC(=O)Nc4ccsc4)ccc2NC3=O)CC1 [Compound 94] | 160 |
| Cc1noc(C)c1NC(=O)Nc1ccc2c(c1)Nc1nc(N(C)C3CCN(C)CC3)ncc1C(=O)N2 [Compound 95] | 950 |
| CN1CCC(N(C)c2ncc3c(n2)Nc2ccc(NC(=O)Nc4ccsc4)cc2NC3=O)CC1 [Compound 99] | 120 |
| Cc1noc(C)c1NC(=O)Nc1ccc2c(c1)NC(=O)c1cnc(N(C)C3CCN(C)CC3)nc1N2 [Compound 100] | 220 |
| CN1CCC(N(C)c2ncc3c(n2)Nc2c(NC(=O)Nc4ccsc4)cccc2NC3=O)CC1 [Compound 101] | 340 |
| Cc1noc(C)c1NC(=O)Nc1cccc2c1Nc1nc(N(C)C3CCN(C)CC3)ncc1C(=O)N2 [Compound 102] | 3400 |
